Experimental data as given in PubChem BioAssay (NCI).
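Protocol summary: plate cells (96-well), add compound at 5 concentrations, incubate 48 h, interpolate endpoints linearly. TGI: concentration producing complete growth inhibition.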

What was measured:
Assay in all cases: NCI anticancer screen, dose series, 48 h
RXF 393 renal = system: RXF 393 renal
K-562 leukemia = system: K-562 leukemia
MCF7 breast = system: MCF7 breast
A549 NSCLC = system: A549 NSCLC
OVCAR-8 ovarian = system: OVCAR-8 ovarian
CAKI-1 renal = system: CAKI-1 renal
CCRF-CEM leukemia = system: CCRF-CEM leukemia
SNB-75 CNS = system: SNB-75 CNS
U251 CNS = system: U251 CNS
KM12 colon = system: KM12 colon
LOX IMVI melanoma = system: LOX IMVI melanoma
EKVX NSCLC = system: EKVX NSCLC
IGROV1 ovarian = system: IGROV1 ovarian
UO-31 renal = system: UO-31 renal
BT-549 breast = system: BT-549 breast
SNB-19 CNS = system: SNB-19 CNS
SF-539 CNS = system: SF-539 CNS
NCI-H460 lung = system: NCI-H460 lung
NCI-H23 lung = system: NCI-H23 lung
SK-MEL-5 melanoma = system: SK-MEL-5 melanoma
UACC-257 melanoma = system: UACC-257 melanoma
SK-MEL-28 melanoma = system: SK-MEL-28 melanoma
ACHN renal = system: ACHN renal
MDA-MB-435 = system: MDA-MB-435
HOP-92 NSCLC = system: HOP-92 NSCLC
HS 578T breast = system: HS 578T breast
MALME-3M melanoma = system: MALME-3M melanoma
SF-268 CNS = system: SF-268 CNS
NCI-H522 lung = system: NCI-H522 lung
MOLT-4 leukemia = system: MOLT-4 leukemia
SN12C renal = system: SN12C renal
HCT-15 colon = system: HCT-15 colon
OVCAR-5 ovarian = system: OVCAR-5 ovarian
NCI-H226 lung = system: NCI-H226 lung
SW-620 colon = system: SW-620 colon
PC-3 prostate = system: PC-3 prostate
HCT-116 colon = system: HCT-116 colon
RPMI-8226 leukemia = system: RPMI-8226 leukemia
786-0 renal = system: 786-0 renal
HCC-2998 colon = system: HCC-2998 colon
COLO 205 colon = system: COLO 205 colon
A498 renal = system: A498 renal
TK-10 renal = system: TK-10 renal
T-47D breast = system: T-47D breast
UACC-62 melanoma = system: UACC-62 melanoma
OVCAR-3 ovarian = system: OVCAR-3 ovarian
SF-295 CNS = system: SF-295 CNS
SR leukemia = system: SR leukemia
MDA-N = system: MDA-N
SK-MEL-2 melanoma = system: SK-MEL-2 melanoma
HOP-62 NSCLC = system: HOP-62 NSCLC
NCI/ADR-RES ovarian = system: NCI/ADR-RES ovarian
MDA-MB-231 breast = system: MDA-MB-231 breast
DU-145 prostate = system: DU-145 prostate
OVCAR-4 ovarian = system: OVCAR-4 ovarian
HT29 colon = system: HT29 colon
HL-60(TB) leukemia = system: HL-60(TB) leukemia
SK-OV-3 ovarian = system: SK-OV-3 ovarian
M14 melanoma = system: M14 melanoma

C/C=C/[C@H](O[Si](C)(C)C(C)(C)C)[C@@H](O)/C=C/C(=O)OCC
TGI (RXF 393 renal): 43.1 µM
TGI (K-562 leukemia): 43.9 µM
TGI (MCF7 breast): 45.2 µM
TGI (A549 NSCLC): > 100 µM
TGI (OVCAR-8 ovarian): 34.6 µM
TGI (CAKI-1 renal): 34.2 µM
TGI (CCRF-CEM leukemia): 35.4 µM
TGI (SNB-75 CNS): > 100 µM
TGI (U251 CNS): 35.5 µM
TGI (KM12 colon): 32.3 µM
TGI (LOX IMVI melanoma): 33.3 µM
TGI (EKVX NSCLC): 45.4 µM
TGI (IGROV1 ovarian): 50.4 µM
TGI (UO-31 renal): 42.5 µM
TGI (BT-549 breast): 65.4 µM
TGI (SNB-19 CNS): 28.7 µM
TGI (SF-539 CNS): 52 µM
TGI (NCI-H460 lung): 34.6 µM
TGI (NCI-H23 lung): > 100 µM
TGI (SK-MEL-5 melanoma): 32.2 µM
TGI (UACC-257 melanoma): 40.8 µM
TGI (SK-MEL-28 melanoma): 32.4 µM
TGI (ACHN renal): 30.2 µM
TGI (MDA-MB-435): 38.5 µM
TGI (HOP-92 NSCLC): 46.3 µM
TGI (HS 578T breast): 79.5 µM
TGI (MALME-3M melanoma): 28.4 µM
TGI (SF-268 CNS): 53.7 µM
TGI (NCI-H522 lung): 30.3 µM
TGI (MOLT-4 leukemia): 37.6 µM
TGI (SN12C renal): 48.1 µM
TGI (HCT-15 colon): 27.7 µM
TGI (OVCAR-5 ovarian): 79.5 µM
TGI (NCI-H226 lung): 83.7 µM
TGI (SW-620 colon): 39.2 µM
TGI (PC-3 prostate): > 100 µM
TGI (HCT-116 colon): 32.3 µM
TGI (RPMI-8226 leukemia): 12.1 µM
TGI (786-0 renal): 41.5 µM
TGI (HCC-2998 colon): 34.8 µM
TGI (COLO 205 colon): 40.6 µM
TGI (A498 renal): 67.9 µM
TGI (TK-10 renal): 75.6 µM
TGI (T-47D breast): 89.8 µM
TGI (UACC-62 melanoma): 38.8 µM
TGI (OVCAR-3 ovarian): 47.6 µM
TGI (SF-295 CNS): 46 µM
TGI (SR leukemia): 44.1 µM
TGI (MDA-N): 42.8 µM
TGI (SK-MEL-2 melanoma): 82 µM
TGI (HOP-62 NSCLC): 39.8 µM
TGI (NCI/ADR-RES ovarian): 76.8 µM
TGI (MDA-MB-231 breast): 66 µM
TGI (DU-145 prostate): > 100 µM
TGI (OVCAR-4 ovarian): 27.8 µM
TGI (HT29 colon): 39.2 µM

COc1cc2c(c(OC3OC(CO)C(O)C(O)C3O)c1)C(=O)CC(c1ccc(O)cc1)O2 (stereo unspecified)
TGI (K-562 leukemia): > 100 µM
TGI (MCF7 breast): > 100 µM
TGI (A549 NSCLC): > 100 µM
TGI (OVCAR-8 ovarian): > 100 µM
TGI (CAKI-1 renal): > 100 µM
TGI (SNB-75 CNS): > 100 µM
TGI (U251 CNS): > 100 µM
TGI (KM12 colon): > 100 µM
TGI (LOX IMVI melanoma): > 100 µM
TGI (EKVX NSCLC): > 100 µM
TGI (IGROV1 ovarian): > 100 µM
TGI (UO-31 renal): > 100 µM
TGI (HL-60(TB) leukemia): > 100 µM
TGI (BT-549 breast): > 100 µM
TGI (SNB-19 CNS): > 100 µM
TGI (SF-539 CNS): > 100 µM
TGI (NCI-H460 lung): > 100 µM
TGI (NCI-H23 lung): > 100 µM
TGI (SK-MEL-5 melanoma): > 100 µM
TGI (UACC-257 melanoma): > 100 µM
TGI (SK-MEL-28 melanoma): > 100 µM
TGI (ACHN renal): > 100 µM
TGI (MDA-MB-435): > 100 µM
TGI (HOP-92 NSCLC): > 100 µM
TGI (HS 578T breast): > 100 µM
TGI (SF-268 CNS): > 100 µM
TGI (SK-OV-3 ovarian): > 100 µM
TGI (NCI-H522 lung): > 100 µM
TGI (MOLT-4 leukemia): > 100 µM
TGI (SN12C renal): > 100 µM
TGI (HCT-15 colon): > 100 µM
TGI (OVCAR-5 ovarian): > 100 µM
TGI (M14 melanoma): > 100 µM
TGI (NCI-H226 lung): > 100 µM
TGI (SW-620 colon): > 100 µM
TGI (PC-3 prostate): > 100 µM
TGI (HCT-116 colon): > 100 µM
TGI (RPMI-8226 leukemia): > 100 µM
TGI (786-0 renal): > 100 µM
TGI (HCC-2998 colon): > 100 µM
TGI (COLO 205 colon): > 100 µM
TGI (A498 renal): > 100 µM
TGI (TK-10 renal): > 100 µM
TGI (T-47D breast): > 100 µM
TGI (UACC-62 melanoma): > 100 µM
TGI (OVCAR-3 ovarian): > 100 µM
TGI (SF-295 CNS): > 100 µM
TGI (SR leukemia): > 100 µM
TGI (MDA-N): > 100 µM
TGI (SK-MEL-2 melanoma): > 100 µM
TGI (NCI/ADR-RES ovarian): > 100 µM
TGI (MDA-MB-231 breast): > 100 µM
TGI (DU-145 prostate): > 100 µM
TGI (OVCAR-4 ovarian): > 100 µM
TGI (HT29 colon): > 100 µM
